Measurements as given in US8575091B1, “Amylin analogues and pharmaceutical compositions thereof” (Novo Nordisk A/S, priority 2012, dated 2013).
Numbered stars: 1 amine (or outer) side, 2 acyl side, 3 side chain; on linkers, the order of the positions; unused ones are H or OH. Bridge positions count the residues as written; N and C are the ends. Side chains are listed from the residue outwards. Peptide text beside a SMILES is read from it. * marks the point of attachment. C20 diacid = O=C(O)CCCCCCCCCCCCCCCCCCC(=O)*; γGlu = O=C(O)[C@H](CCC(=O)[*:2])N[*:1]; AEEA = NCCOCCOCC(=O)O

Biological target: T1, human amylin receptor (amylin 3(a) receptor: human calcitonin receptor + RAMP-3) (Homo sapiens, UniProt O60896+P30988)
T1 construct: expressed in transfected cells
T1 sequence (P30988 25-474): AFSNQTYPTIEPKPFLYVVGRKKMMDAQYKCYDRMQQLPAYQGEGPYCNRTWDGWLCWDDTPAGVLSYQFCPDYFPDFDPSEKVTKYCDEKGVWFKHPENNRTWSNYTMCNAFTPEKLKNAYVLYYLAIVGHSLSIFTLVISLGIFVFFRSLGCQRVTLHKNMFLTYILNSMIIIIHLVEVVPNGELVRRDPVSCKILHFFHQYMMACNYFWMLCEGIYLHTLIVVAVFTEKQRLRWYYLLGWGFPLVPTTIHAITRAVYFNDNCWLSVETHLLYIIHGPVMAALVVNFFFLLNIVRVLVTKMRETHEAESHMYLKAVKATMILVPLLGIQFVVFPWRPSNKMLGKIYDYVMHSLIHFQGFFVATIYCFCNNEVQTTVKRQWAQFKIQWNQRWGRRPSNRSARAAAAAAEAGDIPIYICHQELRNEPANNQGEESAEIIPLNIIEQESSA
T1 sequence (O60896 24-148 partner): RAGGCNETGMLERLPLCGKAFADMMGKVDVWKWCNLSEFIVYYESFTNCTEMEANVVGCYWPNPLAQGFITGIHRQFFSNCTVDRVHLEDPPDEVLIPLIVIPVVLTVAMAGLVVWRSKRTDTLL
Assay: Assay (II)a functional assay, human amylin receptor (CRE luciferase, BHK cells)
Format: cell-based

[1] = Table 6, human functional selectivity (hCTR EC50 / hAmylin-R EC50)
[2] = Table 6i, hCTR funct. EC50 / hAmylin-R funct. EC50
[3] = Table 6j, hCTR funct. EC50 / hAmylin-R funct. EC50
[4] = Table 6a, human functional selectivity (hCTR EC50 / hAmylin-R EC50), at least 5
[5] = Table 6k, hCTR funct. EC50 / hAmylin-R funct. EC50

Row | Ratio hCT/hAmylin funct. [1] | Ratio hCT/hAmylin funct. [2] | Ratio hCT/hAmylin funct. [3] | Ratio hCT/hAmylin funct. [4] | Ratio hCT/hAmylin funct. [5] | Structure (SMILES)
1 | 4.5 |  |  |  |  | CC[C@H](C)[C@H](NC(=O)[C@H](C)NC(=O)CNC(=O)[C@H](Cc1ccccc1)NC(=O)[C@H](CC(N)=O)NC(=O)[C@@H]1CCCN1C(=O)[C@H](CO)NC(=O)[C@H](CO)NC(=O)[C@H](Cc1c[nH]cn1)NC(=O)[C@H](CCCNC(=N)N)NC(=O)[C@H](CC(C)C)NC(=O)[C@H](Cc1ccccc1)NC(=O)[C@H](C)NC(=O)[C@H](C)NC(=O)[C@H](CC(C)C)NC(=O)[C@H](CCCNC(=N)N)NC(=O)[C@H](CCC(N)=O)NC(=O)[C@@H](NC(=O)[C@H](C)NC(=O)[C@@H]1CSSC[C@H](NC(=O)[C@@H](N)CCCCNC(=O)CC[C@H](NC(=O)CCCCCCCCCCCCCCCCCCC(=O)O)C(=O)O)C(=O)N[C@@H](CC(N)=O)C(=O)N[C@@H]([C@@H](C)O)C(=O)N[C@@H](C)C(=O)N[C@@H]([C@@H](C)O)C(=O)N1)[C@@H](C)O)C(=O)N1CCC[C@H]1C(=O)N[C@@H](CO)C(=O)N[C@@H](CO)C(=O)N[C@H](C(=O)N[C@@H](CC(N)=O)C(=O)N[C@H](C(=O)NCC(=O)N1CCC[C@H]1C(=O)N[C@@H](CC(N)=O)C(=O)N[C@H](C(=O)N[C@@H](Cc1ccc(O)cc1)C(N)=O)[C@@H](C)O)C(C)C)[C@@H](C)O [Example 94] (H-K([γGlu-C20 diacid])CNTATCATQRLAAFLRHSSPNFGAIPSSTNVGPNTY-NH2; disulfide 2-7; N-terminus assumed)
2 | 8.1 |  | 8.1 | 8.1 | 8.1 | CC[C@H](C)[C@H](NC(=O)[C@H](C)NC(=O)CNC(=O)[C@H](Cc1ccccc1)NC(=O)[C@H](CC(N)=O)NC(=O)[C@@H]1CCCN1C(=O)[C@H](CO)NC(=O)[C@H](CO)NC(=O)[C@H](Cc1c[nH]cn1)NC(=O)[C@H](CCCNC(=N)N)NC(=O)[C@H](CC(C)C)NC(=O)[C@H](Cc1ccccc1)NC(=O)[C@H](CO)NC(=O)[C@H](C)NC(=O)[C@H](CC(C)C)NC(=O)[C@H](CCCNC(=N)N)NC(=O)[C@H](CCC(N)=O)NC(=O)[C@@H](NC(=O)[C@H](C)NC(=O)[C@@H]1CSSC[C@H](NC(=O)[C@@H](N)CCCCNC(=O)CC[C@H](NC(=O)CC[C@H](NC(=O)CCCCCCCCCCCCCCCCCCC(=O)O)C(=O)O)C(=O)O)C(=O)N[C@@H](CC(N)=O)C(=O)N[C@@H]([C@@H](C)O)C(=O)N[C@@H](C)C(=O)N[C@@H]([C@@H](C)O)C(=O)N1)[C@@H](C)O)C(=O)N1CCC[C@H]1C(=O)N[C@@H](CO)C(=O)N[C@@H](CO)C(=O)N[C@H](C(=O)N[C@@H](CC(N)=O)C(=O)N[C@H](C(=O)NCC(=O)N1CCC[C@H]1C(=O)N[C@@H](CCC(=O)O)C(=O)N[C@H](C(=O)N[C@@H](Cc1ccc(O)cc1)C(N)=O)[C@@H](C)O)C(C)C)[C@@H](C)O [Example 120] (H-K([γGlu-γGlu-C20 diacid])CNTATCATQRLASFLRHSSPNFGAIPSSTNVGPETY-NH2; disulfide 2-7 (inferred); N-terminus and C-terminus assumed)

More lines, now with the values behind:

Row | Structure (SMILES) | Ratio hCT/hAmylin funct. [1] | Ratio hCT/hAmylin funct. [2] | Ratio hCT/hAmylin funct. [3] | Ratio hCT/hAmylin funct. [4] | Ratio hCT/hAmylin funct. [5]
3 | CC[C@H](C)[C@H](NC(=O)[C@H](C)NC(=O)CNC(=O)[C@H](Cc1ccccc1)NC(=O)[C@H](CC(N)=O)NC(=O)[C@@H]1CCCN1C(=O)[C@H](CO)NC(=O)[C@H](CO)NC(=O)[C@H](Cc1c[nH]cn1)NC(=O)[C@H](CCCNC(=N)N)NC(=O)[C@H](CC(C)C)NC(=O)[C@H](Cc1ccccc1)NC(=O)[C@H](CCC(=O)O)NC(=O)[C@H](C)NC(=O)[C@H](CC(C)C)NC(=O)[C@H](CCCNC(=N)N)NC(=O)[C@H](CCC(N)=O)NC(=O)[C@@H](NC(=O)[C@H](C)NC(=O)[C@@H]1CSSC[C@H](NC(=O)[C@@H](N)CCCCNC(=O)CC[C@H](NC(=O)CC[C@H](NC(=O)CCCCCCCCCCCCCCCCCCC(=O)O)C(=O)O)C(=O)O)C(=O)N[C@@H](CC(N)=O)C(=O)N[C@@H]([C@@H](C)O)C(=O)N[C@@H](C)C(=O)N[C@@H]([C@@H](C)O)C(=O)N1)[C@@H](C)O)C(=O)N1CCC[C@H]1C(=O)N[C@@H](CO)C(=O)N[C@@H](CO)C(=O)N[C@H](C(=O)N[C@@H](CC(N)=O)C(=O)N[C@H](C(=O)NCC(=O)N[C@@H](Cc1c[nH]cn1)C(=O)N[C@@H](CC(N)=O)C(=O)N[C@H](C(=O)N[C@@H](Cc1ccc(O)cc1)C(N)=O)[C@@H](C)O)C(C)C)[C@@H](C)O [Example 87] (H-K([γGlu-γGlu-C20 diacid])CNTATCATQRLAEFLRHSSPNFGAIPSSTNVGHNTY-NH2; disulfide 2-7) | 3.8 | 3.8 | 3.8 |  | 
4 | CC[C@H](C)[C@H](NC(=O)[C@H](C)NC(=O)CNC(=O)[C@H](Cc1ccccc1)NC(=O)[C@H](CC(N)=O)NC(=O)[C@@H]1CCCN1C(=O)[C@H](CO)NC(=O)[C@H](CO)NC(=O)[C@H](Cc1c[nH]cn1)NC(=O)[C@H](CCCNC(=N)N)NC(=O)[C@H](CC(C)C)NC(=O)[C@H](Cc1ccccc1)NC(=O)[C@H](CCC(=O)O)NC(=O)[C@H](C)NC(=O)[C@H](CC(C)C)NC(=O)[C@H](CCCNC(=N)N)NC(=O)[C@H](CCC(N)=O)NC(=O)[C@@H](NC(=O)[C@H](C)NC(=O)[C@@H]1CSSC[C@H](NC(=O)[C@H](CCCCN)NC(=O)CC[C@H](NC(=O)CCCCCCCCCCCCCCCCCCC(=O)O)C(=O)O)C(=O)N[C@@H](CC(N)=O)C(=O)N[C@@H]([C@@H](C)O)C(=O)N[C@@H](C)C(=O)N[C@@H]([C@@H](C)O)C(=O)N1)[C@@H](C)O)C(=O)N1CCC[C@H]1C(=O)N[C@@H](CO)C(=O)N[C@@H](CO)C(=O)N[C@H](C(=O)N[C@@H](CC(N)=O)C(=O)N[C@H](C(=O)NCC(=O)N[C@@H](Cc1c[nH]cn1)C(=O)N[C@@H](CC(N)=O)C(=O)N[C@H](C(=O)N[C@@H](Cc1ccc(O)cc1)C(N)=O)[C@@H](C)O)C(C)C)[C@@H](C)O [Example 17] ({C20 diacid-γGlu}-KCNTATCATQRLAEFLRHSSPNFGAIPSSTNVGHNTY-NH2; disulfide 2-7) | 8.8 | 8.8 | 8.8 | 8.8 | 8.8
5 | CC[C@H](C)[C@H](NC(=O)[C@H](C)NC(=O)CNC(=O)[C@H](Cc1ccccc1)NC(=O)[C@H](CC(N)=O)NC(=O)[C@@H]1CCCN1C(=O)[C@H](CO)NC(=O)[C@H](CO)NC(=O)[C@H](Cc1c[nH]cn1)NC(=O)[C@H](CCCNC(=N)N)NC(=O)[C@H](CC(C)C)NC(=O)[C@H](Cc1ccccc1)NC(=O)[C@H](CC(N)=O)NC(=O)[C@H](C)NC(=O)[C@H](CC(C)C)NC(=O)[C@H](CCCNC(=N)N)NC(=O)[C@H](CCC(N)=O)NC(=O)[C@@H](NC(=O)[C@H](C)NC(=O)[C@@H]1CSSC[C@H](NC(=O)[C@@H](N)CCCCNC(=O)COCCOCCNC(=O)CC[C@H](NC(=O)CCCCCCCCCCCCCCCCCCC(=O)O)C(=O)O)C(=O)N[C@@H](CC(N)=O)C(=O)N[C@@H]([C@@H](C)O)C(=O)N[C@@H](C)C(=O)N[C@@H]([C@@H](C)O)C(=O)N1)[C@@H](C)O)C(=O)N1CCC[C@H]1C(=O)N[C@@H](CO)C(=O)N1CCC[C@H]1C(=O)N[C@H](C(=O)N1CCC[C@H]1C(=O)N[C@H](C(=O)NCC(=O)N[C@@H](CO)C(=O)N[C@@H](CC(N)=O)C(=O)N[C@H](C(=O)N[C@@H](Cc1ccc(O)cc1)C(N)=O)[C@@H](C)O)C(C)C)[C@@H](C)O [Example 54] (H-K([AEEA-γGlu-C20 diacid])CNTATCATQRLANFLRHSSPNFGAIPSPTPVGSNTY-NH2; disulfide 2-7; N-terminus assumed) | 9.6 |  | 9.6 | 9.6 | 9.6
6 | CC[C@H](C)[C@H](NC(=O)[C@H](C)NC(=O)CNC(=O)[C@H](Cc1ccccc1)NC(=O)[C@H](CC(N)=O)NC(=O)[C@@H]1CCCN1C(=O)[C@H](CO)NC(=O)[C@H](CO)NC(=O)[C@H](Cc1c[nH]cn1)NC(=O)[C@H](CCCNC(=N)N)NC(=O)[C@H](CC(C)C)NC(=O)[C@H](Cc1ccccc1)NC(=O)[C@H](CC(N)=O)NC(=O)[C@H](C)NC(=O)[C@H](CC(C)C)NC(=O)[C@H](CCCNC(=N)N)NC(=O)[C@H](CCC(N)=O)NC(=O)[C@@H](NC(=O)[C@H](C)NC(=O)[C@@H]1CSSC[C@H](NC(=O)[C@@H](N)CCCCNC(=O)COCCOCCNC(=O)CCCCCCCCCCCCCCCCCCC(=O)O)C(=O)N[C@@H](CC(N)=O)C(=O)N[C@@H]([C@@H](C)O)C(=O)N[C@@H](C)C(=O)N[C@@H]([C@@H](C)O)C(=O)N1)[C@@H](C)O)C(=O)N1CCC[C@H]1C(=O)N[C@@H](CO)C(=O)N[C@@H](CO)C(=O)N[C@H](C(=O)N[C@@H](CC(N)=O)C(=O)N[C@H](C(=O)NCC(=O)N[C@@H](CO)C(=O)N[C@@H](CC(N)=O)C(=O)N[C@H](C(=O)N[C@@H](Cc1ccc(O)cc1)C(N)=O)[C@@H](C)O)C(C)C)[C@@H](C)O [Example 43] | 6.5 |  | 6.5 | 6.5 | 6.5
